From paper PMC6193938, “Characterization of a novel AICARFT inhibitor which potently elevates ZMP and has anti-tumor activity in murine models” (Scientific Reports, 2018)
Where two headings read alike, the source gives them in different places.

Experiments:
[1] = test system: MDA-MB-231; experiment: In vitro proliferation assay, Cell Titer Glo; assay type: cell-based; conditions: Homo sapiens
Description: Cell Titer Glo measures ATP, thus the IC50s represent both the effect on purine production and cell proliferation, which are related. […] Folates are actively taken up in cells by reduced folate carrier (SLC19A1), proton-coupled folate transporter (SLC46A1), and the FOLR1 folate receptor[17]. Once inside the cell, folates are trapped by polyglutamation catalyzed by folylpolyglutamate synthetase (FPGS). […] Gene expression data for ATIC, GART, APRT, HPRT, FOLR1, SLC19A1, SLC46A1 & FPGS are shown in Fig. 2, since these genes were anticipated to predict sensitivity. […] The MDA-MB-231 cell line is reduced folate carrier (SLC19A1) negative due to epigenetic silencing.
(§1) Cells were cultured using recommended culture conditions unless noted otherwise (Supplemental Table 3). Cells were plated, dosed with compound and incubated at 37 °C for approximately 2 doubling times as determined for each cell line. Cell Titer Glo (Promega) assay was used to measure proliferation according to manufacturer’s recommendations by measuring luminescence with Flexstation3 (Molecular Devices) with 500 ms integration time. […] The % response was fit to a four-parameter logistic equation using ACTIVITYBASE 4.0 to determine the absolute IC50 values.

[2] = target: T1, MET (Homo sapiens, UniProt P08581); experiment: CEREP protein kinase assay; assay type: biochemical
T1 construct: purchased CEREP Panlabs (Eurofins)
T1 sequence (P08581 25-1390): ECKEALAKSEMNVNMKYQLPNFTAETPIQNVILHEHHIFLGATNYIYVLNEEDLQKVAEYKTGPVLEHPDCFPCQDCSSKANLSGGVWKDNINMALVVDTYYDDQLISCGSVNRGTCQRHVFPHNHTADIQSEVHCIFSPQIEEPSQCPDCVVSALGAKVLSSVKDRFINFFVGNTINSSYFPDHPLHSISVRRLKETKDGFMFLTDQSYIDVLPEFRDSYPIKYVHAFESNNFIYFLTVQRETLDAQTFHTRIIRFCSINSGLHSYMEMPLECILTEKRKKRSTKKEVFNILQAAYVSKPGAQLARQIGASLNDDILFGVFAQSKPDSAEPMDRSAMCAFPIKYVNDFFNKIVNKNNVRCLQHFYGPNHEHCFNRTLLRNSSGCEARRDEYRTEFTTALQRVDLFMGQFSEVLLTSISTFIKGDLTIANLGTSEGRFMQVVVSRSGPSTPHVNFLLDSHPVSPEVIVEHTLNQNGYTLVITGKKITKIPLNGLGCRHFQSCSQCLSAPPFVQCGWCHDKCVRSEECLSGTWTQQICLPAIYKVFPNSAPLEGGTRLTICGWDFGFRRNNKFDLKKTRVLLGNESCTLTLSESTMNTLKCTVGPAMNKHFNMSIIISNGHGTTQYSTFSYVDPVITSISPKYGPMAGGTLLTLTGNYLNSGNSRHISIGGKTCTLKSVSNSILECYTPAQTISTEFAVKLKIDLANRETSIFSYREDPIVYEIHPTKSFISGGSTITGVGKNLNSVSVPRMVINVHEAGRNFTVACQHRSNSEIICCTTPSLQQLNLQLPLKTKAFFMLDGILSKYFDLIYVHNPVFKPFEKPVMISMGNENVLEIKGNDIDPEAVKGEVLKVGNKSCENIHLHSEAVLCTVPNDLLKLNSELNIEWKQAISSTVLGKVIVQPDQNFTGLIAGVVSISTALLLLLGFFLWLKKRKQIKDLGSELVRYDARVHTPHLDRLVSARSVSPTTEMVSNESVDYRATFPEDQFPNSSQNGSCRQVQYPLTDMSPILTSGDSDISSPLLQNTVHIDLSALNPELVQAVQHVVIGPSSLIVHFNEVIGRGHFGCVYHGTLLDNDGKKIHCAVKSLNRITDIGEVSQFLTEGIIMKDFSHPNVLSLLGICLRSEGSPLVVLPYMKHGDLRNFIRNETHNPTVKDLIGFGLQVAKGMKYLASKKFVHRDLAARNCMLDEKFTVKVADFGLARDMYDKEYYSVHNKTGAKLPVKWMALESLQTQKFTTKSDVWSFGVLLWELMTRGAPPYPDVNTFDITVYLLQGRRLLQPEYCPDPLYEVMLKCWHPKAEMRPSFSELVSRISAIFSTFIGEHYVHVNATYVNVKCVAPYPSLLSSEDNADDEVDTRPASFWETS

[3] = target: T2, ALK4 (Homo sapiens, UniProt P36896); experiment: CEREP protein kinase assay; assay type: biochemical
T2 construct: purchased CEREP Panlabs (Eurofins)
T2 sequence (P36896 24-505): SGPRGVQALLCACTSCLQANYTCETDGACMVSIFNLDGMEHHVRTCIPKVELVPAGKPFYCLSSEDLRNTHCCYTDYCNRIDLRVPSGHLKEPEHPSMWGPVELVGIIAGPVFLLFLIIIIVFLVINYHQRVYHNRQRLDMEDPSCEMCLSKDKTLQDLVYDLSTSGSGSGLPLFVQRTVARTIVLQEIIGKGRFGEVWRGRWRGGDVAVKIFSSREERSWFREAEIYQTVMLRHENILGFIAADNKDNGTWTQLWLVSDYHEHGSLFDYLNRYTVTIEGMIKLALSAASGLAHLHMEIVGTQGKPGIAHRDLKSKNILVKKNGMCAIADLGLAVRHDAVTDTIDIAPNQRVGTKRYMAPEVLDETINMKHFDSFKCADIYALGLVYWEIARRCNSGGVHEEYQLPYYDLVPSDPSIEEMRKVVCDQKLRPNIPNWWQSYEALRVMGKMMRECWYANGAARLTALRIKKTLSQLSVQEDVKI

[4] = target: T3, FGFR4 (Homo sapiens, UniProt P22455); experiment: CEREP protein kinase assay; assay type: biochemical
T3 construct: purchased CEREP Panlabs (Eurofins)
T3 sequence (P22455 22-802): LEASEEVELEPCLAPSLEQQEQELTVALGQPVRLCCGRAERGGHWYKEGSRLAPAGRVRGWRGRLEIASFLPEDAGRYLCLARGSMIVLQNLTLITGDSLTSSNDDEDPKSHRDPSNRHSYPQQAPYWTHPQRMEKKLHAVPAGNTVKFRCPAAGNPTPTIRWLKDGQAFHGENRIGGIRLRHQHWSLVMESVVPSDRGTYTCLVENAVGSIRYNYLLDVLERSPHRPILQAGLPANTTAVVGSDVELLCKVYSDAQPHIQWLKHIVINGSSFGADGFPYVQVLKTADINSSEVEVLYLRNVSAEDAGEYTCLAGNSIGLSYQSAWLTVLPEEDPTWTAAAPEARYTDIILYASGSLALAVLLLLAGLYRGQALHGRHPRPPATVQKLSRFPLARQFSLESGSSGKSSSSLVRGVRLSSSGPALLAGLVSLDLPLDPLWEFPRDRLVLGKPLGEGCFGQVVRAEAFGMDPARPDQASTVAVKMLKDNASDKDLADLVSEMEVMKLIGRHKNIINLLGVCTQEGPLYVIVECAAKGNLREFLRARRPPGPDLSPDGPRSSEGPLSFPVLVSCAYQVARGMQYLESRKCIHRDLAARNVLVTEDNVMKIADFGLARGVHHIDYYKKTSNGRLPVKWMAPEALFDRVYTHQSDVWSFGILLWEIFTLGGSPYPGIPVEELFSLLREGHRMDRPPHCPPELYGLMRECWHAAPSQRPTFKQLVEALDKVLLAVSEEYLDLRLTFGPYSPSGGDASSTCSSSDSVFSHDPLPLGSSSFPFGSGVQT

[5] = target: T4, FER (Homo sapiens, UniProt P16591); experiment: CEREP protein kinase assay; assay type: biochemical
T4 construct: purchased CEREP Panlabs (Eurofins)
T4 sequence (P16591 whole entry): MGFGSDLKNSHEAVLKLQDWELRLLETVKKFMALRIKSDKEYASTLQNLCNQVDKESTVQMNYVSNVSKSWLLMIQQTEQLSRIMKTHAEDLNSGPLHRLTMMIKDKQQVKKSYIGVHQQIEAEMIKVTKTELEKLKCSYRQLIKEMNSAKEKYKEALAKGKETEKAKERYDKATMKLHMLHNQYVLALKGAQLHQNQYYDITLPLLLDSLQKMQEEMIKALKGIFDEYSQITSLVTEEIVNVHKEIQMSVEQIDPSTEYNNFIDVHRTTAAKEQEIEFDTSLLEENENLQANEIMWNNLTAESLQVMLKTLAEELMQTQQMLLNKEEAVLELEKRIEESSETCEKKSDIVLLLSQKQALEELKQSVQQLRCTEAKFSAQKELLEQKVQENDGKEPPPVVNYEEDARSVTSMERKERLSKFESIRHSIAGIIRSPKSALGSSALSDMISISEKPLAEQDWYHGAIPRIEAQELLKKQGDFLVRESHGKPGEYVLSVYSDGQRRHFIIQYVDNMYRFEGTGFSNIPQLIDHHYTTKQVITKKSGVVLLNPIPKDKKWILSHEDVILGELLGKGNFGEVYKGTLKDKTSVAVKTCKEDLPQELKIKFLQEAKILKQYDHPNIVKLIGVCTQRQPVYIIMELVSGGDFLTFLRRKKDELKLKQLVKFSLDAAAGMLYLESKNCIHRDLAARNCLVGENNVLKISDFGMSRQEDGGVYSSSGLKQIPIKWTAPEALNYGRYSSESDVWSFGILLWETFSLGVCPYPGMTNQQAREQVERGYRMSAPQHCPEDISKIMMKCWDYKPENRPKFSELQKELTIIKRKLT

[6] = test system: NCI-H460 (lung); experiment: Low folate & high folate in vitro proliferation assay (Alamar Blue); assay type: cell-based, human; conditions: for GI50: Homo sapiens
Method: Cells lines were acquired from cell banks, see supplemental material, grown using the cell banks recommended culture conditions (Supplemental Table 3). In some experiments noted “low folate” the cells were washed and grown in folate free RPMI-1640 media (Gibco #27016-021) supplemented with 5 ml 1 M Hepes, 5 ml 100 mM Na pyruvate, 2.5 mg/ml glucose and 10% defined FBS (Hyclone #SH30070) per 500 mL media for 5–7 days to deplete intracellular folate levels prior to the start of the experiment. Where noted, cells were maintained in complete “high folate” RPMI-1640 media (ATCC #30-2001) with 10% defined FBS to contrast with the low folate conditions.
as §1
For a limited number of cell lines, compound dosing was performed under high or low folate conditions with cell viability being determined with Alamar Blue rather than an ATP dependent assay. Cells were plated and treated as described above. Proliferation was measured using Alamar Blue Cell Viability Reagent (Invitrogen), and read after approximately 1.5–4 hours incubation at 37 °C on the Envision plate reader (Perkin Elmer) with excitation at 570 nm and emission at 585 nm. The % inhibition for each sample was calculated and fit as described above.

[7] = target: T5, AKT3 (Homo sapiens, UniProt Q9Y243); experiment: CEREP protein kinase assay; assay type: biochemical
T5 construct: purchased CEREP Panlabs (Eurofins)
T5 sequence (Q9Y243 whole entry): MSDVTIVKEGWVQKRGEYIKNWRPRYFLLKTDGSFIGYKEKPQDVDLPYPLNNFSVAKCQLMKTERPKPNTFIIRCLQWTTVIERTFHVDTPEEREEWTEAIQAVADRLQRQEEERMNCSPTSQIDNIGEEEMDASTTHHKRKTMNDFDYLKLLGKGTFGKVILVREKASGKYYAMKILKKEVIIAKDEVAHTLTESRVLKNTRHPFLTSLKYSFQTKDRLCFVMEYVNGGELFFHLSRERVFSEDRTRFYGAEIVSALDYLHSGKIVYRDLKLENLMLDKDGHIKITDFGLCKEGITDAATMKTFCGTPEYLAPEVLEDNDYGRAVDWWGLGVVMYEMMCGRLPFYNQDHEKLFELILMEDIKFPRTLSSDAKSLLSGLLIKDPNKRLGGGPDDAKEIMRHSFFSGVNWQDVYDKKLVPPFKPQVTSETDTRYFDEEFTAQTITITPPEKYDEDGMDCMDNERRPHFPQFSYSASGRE

[8] = target: T6, HIPK2 (Homo sapiens, UniProt Q9H2X6); experiment: CEREP protein kinase assay; assay type: biochemical
T6 construct: purchased CEREP Panlabs (Eurofins)

[9] = target: T7, CDK4 (Homo sapiens, UniProt P11802); experiment: CEREP protein kinase assay; assay type: biochemical
T7 construct: purchased CEREP Panlabs (Eurofins)
T7 sequence (P11802 whole entry): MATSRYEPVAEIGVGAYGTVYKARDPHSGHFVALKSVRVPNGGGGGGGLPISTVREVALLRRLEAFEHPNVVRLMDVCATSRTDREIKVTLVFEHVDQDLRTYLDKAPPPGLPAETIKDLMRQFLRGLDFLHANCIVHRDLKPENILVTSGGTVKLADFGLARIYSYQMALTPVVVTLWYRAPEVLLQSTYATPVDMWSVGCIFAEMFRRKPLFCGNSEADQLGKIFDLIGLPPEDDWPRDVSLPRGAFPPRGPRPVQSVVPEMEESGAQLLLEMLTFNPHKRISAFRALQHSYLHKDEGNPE
T7 sequence (P24385 whole entry partner): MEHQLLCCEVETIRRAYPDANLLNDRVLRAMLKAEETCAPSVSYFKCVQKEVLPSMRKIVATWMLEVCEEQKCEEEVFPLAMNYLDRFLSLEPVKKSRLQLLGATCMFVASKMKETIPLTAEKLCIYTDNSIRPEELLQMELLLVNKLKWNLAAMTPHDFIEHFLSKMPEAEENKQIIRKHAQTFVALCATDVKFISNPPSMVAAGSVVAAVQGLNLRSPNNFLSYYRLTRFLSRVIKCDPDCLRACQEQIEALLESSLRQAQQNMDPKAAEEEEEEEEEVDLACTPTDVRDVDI

[10] = Pharmacokinetic studies; assay type: in vivo; conditions: mouse
Method: Blood samples were obtained through tail clip at 0, 0.08 (IV only), 0.25, 0.75, 2, 4, 8, and 24 hours where approximately 20 µL of blood was filled to capacity into EDTA-coated capillary tubes (Fisher Scientific,) and spotted on to Whatman® DMPK-C DBS collection (GE Healthcare Bio-Sciences). Once spotted, the cards were allowed to dry for 2 hours, placed in Ziploc® bags (S.C. Johnson & Son, Inc.) and shipped to the bioanalytical facility at ambient temperature. Punches (3 mm) from DBS cards were extracted with 180 µL of a 20 ng/mL analog IS (proprietary Lilly compound) in methanol/acetonitrile (1:1, v/v) solution in 96-well plates. Samples were quantitated using LC-MS analysis (AB Sciex® API 4000 triple-quadrupole mass spectrometer (Life Technologies Corporation). PK parameters were calculated for concentration time profiles using Watson LIMS version 7.4 (Thermo Scientific).

[11] = target: T8, CK2 (Homo sapiens, UniProt P68400); experiment: CEREP protein kinase assay; assay type: biochemical
T8 construct: purchased CEREP Panlabs (Eurofins)
T8 sequence (P68400 whole entry): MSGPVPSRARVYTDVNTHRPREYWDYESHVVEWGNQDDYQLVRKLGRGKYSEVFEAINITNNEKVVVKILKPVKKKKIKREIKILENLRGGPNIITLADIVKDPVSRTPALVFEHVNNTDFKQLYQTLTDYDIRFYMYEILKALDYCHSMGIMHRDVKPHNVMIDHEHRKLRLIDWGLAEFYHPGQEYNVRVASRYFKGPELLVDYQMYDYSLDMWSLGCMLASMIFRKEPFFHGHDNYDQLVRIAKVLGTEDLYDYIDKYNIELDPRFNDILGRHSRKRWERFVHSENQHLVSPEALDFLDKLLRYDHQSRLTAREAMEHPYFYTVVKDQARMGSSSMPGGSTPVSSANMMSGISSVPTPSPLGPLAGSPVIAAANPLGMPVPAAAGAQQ

[12] = test system: MDA-MB-231met2 xenograft; experiment: Antitumor efficacy and tumor metabolites, mouse xenograft; assay type: in vivo; conditions: after 22 days of dosing
[13] = male, CD-1, whole blood (dried blood spots), oral 10 mg/kg

Structure (SMILES): O=c1[nH]ccc2cc(F)c(NS(=O)(=O)c3ccc(N4CC[C@@H](O)C4)s3)cc12 [LSN3213128, N-(6-Fluoro-1-oxo-1,2-dihydroisoquinolin-7-yl)-5-[(3R)-3-hydroxypyrrolidin-1-yl]thiophene-2-sulfonamide]
- IC50 ([1]; MDA-MB-231, breast, read-out: ABS_IC50_VALUE): 20 nM
- IC50 ([1]; MDA-MB-231, Cell Titer Glo, two doubling times, read-out: IC50 by CTG): 7.6 nM
- inhibition at 0.2 µM ([2]; @ 0.2 uM): -5.89%
- inhibition at 2 µM ([2]; @ 2 uM): 8.99%
- inhibition at 20 µM ([2]; @ 20 uM): 17.8%
- inhibition at 0.2 µM ([3]; @ 0.2 uM): -10.5%
- inhibition at 2 µM ([3]; @ 2 uM): 10.4%
- inhibition at 20 µM ([3]; @ 20 uM): 55%
- inhibition at 0.2 µM ([4]; @ 0.2 uM): 0.737%
- inhibition at 2 µM ([4]; @ 2 uM): 13.2%
- inhibition at 20 µM ([4]; @ 20 uM): 8.82%
- inhibition at 0.2 µM ([5]; @ 0.2 uM): 3.36%
- inhibition at 2 µM ([5]; @ 2 uM): 18%
- inhibition at 20 µM ([5]; @ 20 uM): 11.1%
- anti-proliferative effects on hypoxanthine supplementation ([6]; 32 μM hypoxanthine): completely rescued
- GI50 ([6]; RPMI media, read-out: Alamar Blue GI50 Regular folate): 3470 ± 2090 nM
- GI50 ([6]; low folate RPMI media, read-out: Alamar Blue GI50 Low folate): 16.4 ± 5.1 nM
- inhibition at 0.2 µM ([7]; @ 0.2 uM): -0.699%
- inhibition at 2 µM ([7]; @ 2 uM): 5.67%
- inhibition at 20 µM ([7]; @ 20 uM): 13%
- inhibition at 0.2 µM ([8]; @ 0.2 uM): -9.39%
- inhibition at 2 µM ([8]; @ 2 uM): 6.25%
- inhibition at 20 µM ([8]; @ 20 uM): 14.1%
- inhibition at 0.2 µM ([9]; @ 0.2 uM): -1.51%
- inhibition at 2 µM ([9]; @ 2 uM): 2.45%
- inhibition at 20 µM ([9]; @ 20 uM): 37.2%
- Vd ([10]; male, CD-1, whole blood (dried blood spots), intravenous 1 mg/kg, read-out: volume of distribution): 0.779 ± 0.17 L/kg
- AUC [10, 13]: 20.2 ± 4.52 µM·h
- Cmax [10, 13]: 4.57 ± 0.559 µM
- bioavailability ([10]; male, CD-1, whole blood (dried blood spots), oral 10 mg/kg vs intravenous 1 mg/kg): 24.6 ± 4.6%
- half-life ([10]; oral 10 mg/kg): 2.4 ± 0.3 h
- unbound Cmax ([10]; oral 10 mg/kg): 0.251 ± 0.031 µM
- inhibition at 0.2 µM ([11]; @ 0.2 uM): -7.53%
- inhibition at 2 µM ([11]; @ 2 uM): -0.227%
- inhibition at 20 µM ([11]; @ 20 uM): 1.58%
- tumor ZTP ([12]; MDA-MB-231met2 tumors): No detectable changes
- tumor ZMP levels ([12]; MDA-MB-231 met2 tumors, 30 and 60 mg/kg): dramatically elevated
